Reference: paper PMC5478869, “New Hydroxycinnamic Acid Esters as Novel 5-Lipoxygenase Inhibitors That Affect Leukotriene Biosynthesis” (Mediators of Inflammation, 2017)
Entries after “also recorded” stand apart in the source; their conditions may differ.

Assays:
5-LO [1] = molecular target: T1, 5-LO (Homo sapiens, UniProt P09917); test: Biosynthesis of 5-LO products in HEK293 cells expressing 5-LO and FLAP (A23187 + arachidonic acid); type: cell-based; design: expressed in transfected cells; host or cells: HEK293; settings: 1 μM compound, 10 μM A23187 + 10 μM arachidonic acid, 15 min
T1 sequence (P09917 1-674): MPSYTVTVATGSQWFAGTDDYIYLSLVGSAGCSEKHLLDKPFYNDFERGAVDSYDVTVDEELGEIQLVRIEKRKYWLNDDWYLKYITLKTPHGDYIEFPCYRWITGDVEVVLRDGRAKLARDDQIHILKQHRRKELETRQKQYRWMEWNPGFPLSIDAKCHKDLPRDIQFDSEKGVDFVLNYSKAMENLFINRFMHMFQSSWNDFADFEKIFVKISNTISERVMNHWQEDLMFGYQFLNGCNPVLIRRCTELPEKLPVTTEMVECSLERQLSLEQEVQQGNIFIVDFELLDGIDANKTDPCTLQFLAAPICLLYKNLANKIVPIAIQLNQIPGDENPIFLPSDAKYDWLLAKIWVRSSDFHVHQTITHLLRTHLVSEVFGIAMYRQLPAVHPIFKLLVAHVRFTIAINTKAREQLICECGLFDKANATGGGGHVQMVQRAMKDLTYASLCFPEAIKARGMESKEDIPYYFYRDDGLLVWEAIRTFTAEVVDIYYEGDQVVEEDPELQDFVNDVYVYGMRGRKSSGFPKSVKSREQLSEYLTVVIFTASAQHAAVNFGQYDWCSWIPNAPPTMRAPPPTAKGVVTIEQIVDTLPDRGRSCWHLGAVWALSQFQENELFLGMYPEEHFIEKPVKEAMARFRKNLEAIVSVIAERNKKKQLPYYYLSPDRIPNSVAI
Protocol: HEK293 cells expressing both 5-LO and the 5-lipoxygenase activating protein (FLAP) were generated as previously reported. For cell stimulation of 5-LO products, transfected HEK293 cells were collected following trypsinization and washed and the cell pellet was resuspended in Hank's balanced salt solution (HBSS, Lonza) containing 1.6 mM CaCl2 at a concentration of 5 × 10^5 cells/ml. Cells were preincubated with each compound at the indicated concentration for 5 min at 37°C. Cells were then stimulated for 15 minutes at 37°C with the addition of 10 μM calcium ionophore A23187 (Sigma-Aldrich) and 10 μM arachidonic acid (Cayman Chemical). Stimulations were stopped by adding 0.5 volume of cold MeOH:MeCN (1 : 1) containing 100 ng/ml of 19-OH prostaglandin B2 (PGB2) as internal standard. Samples were then processed and 5-LO products were analyzed by reversed-phase high-performance liquid chromatography (RP-HPLC) as described previously.
To evaluate CAPE analogues as potential inhibitors of the biosynthesis of 5-LO products, a first series of experiments was performed in HEK293 cells expressing both 5-LO and FLAP as previously described. HEK293 cells were first preincubated with the test compounds (1 μM), then stimulated in the presence of arachidonic acid and calcium ionophore A23187 to induce the biosynthesis of 5-LO products (Figure 2(a)). […] Based on these criteria, compounds 9, 13, 14, 15, 16, and 19 were selected for subsequent analyses.
Figure 2 Effect of the test compounds on the biosynthesis of 5-LO products in transfected HEK293 cells (a) and thapsigargin-stimulated PMNL (b). (a) HEK293 cells expressing both 5-LO and FLAP were incubated in presence of the indicated compounds (1 μM) or their diluent (control, 0.5% DMSO) for 5 min, then biosynthesis of 5-LO products was initiated with the addition of 10 μM calcium ionophore A23187 and 10 μM arachidonic acid for 15 min. After stimulation, reactions were stopped and samples were processed for analysis of 5-LO products by RP-HPLC. Total 5-LO products measured represent the sum of LTB4, its trans isomers, and 5-hydroxyeicosatetraenoic acid. (b) Freshly isolated human PMNL were incubated in presence of test compounds (or their diluent control, DMSO 0.5%) at the indicated concentrations for 5 min. Biosynthesis of the 5-LO products was initiated with the addition of 1 μM of thapsigargin, followed by a 15 min incubation period at 37°C. The stimulation was then stopped and samples were processed for RP-HPLC analysis and total 5-LO products quantification. Total 5-LO products measured represent the sum of LTB4, its trans isomers, 20-COOH- and 20-OH-LTB4 and 5-hydroxyeicosatetraenoic acid. Data are expressed as means ± SEM of at least 3 independent experiments. ^∗Different from control, as determined by one-way ANOVA with Dunnett's multiple comparison test (p < 0.05).

arachidonic acid release = settings: cited from earlier work
5-LO [2] = molecular target: T1, 5-LO; design: endogenous in cells; host or cells: human polymorphonuclear leukocytes (PMNL) isolated from whole blood; method as in PMID 22347509; settings: cited from earlier work

| SMILES | Inhibition of biosynthesis of 5-LO products in transfected HEK293 cells (5-LO [1]) | Inhibition of liberation of cellular arachidonic acid (previously shown) (arachidonic acid release) | Inhibition of biosynthesis of 5-LO products in whole blood (previous studies) (5-LO [2]) |
| --- | --- | --- | --- |
| COC(=O)/C=C/c1ccc(O)c(O)c1 [Compound 3] | without inhibitory activity | – | – |
| CCOC(=O)/C=C/c1ccc(O)c(O)c1 [Compound 4, ethyl caffeate] | without inhibitory activity | – | – |
| O=C(/C=C/c1ccc(O)c(O)c1)Oc1ccccc1 [Compound 10] | not as effective at inhibiting 5-LO as CAPE (2) | – | – |
| O=C(/C=C/c1ccc(O)c(O)c1)OCc1ccccc1 [Compound 11] | not as effective at inhibiting 5-LO as CAPE (2) | – | – |
| CC(c1cc2ccccc2s1)N(O)C(N)=O (stereo not shown) [Zileuton (1), zileuton, reference compound] | less effective than the selected compounds; also recorded: significantly inhibited the biosynthesis of 5-LO products | previously shown to inhibit the liberation of cellular arachidonic acid | slightly better inhibitor of the biosynthesis of 5-LO products in whole blood than CAPE (2) |
